Legend:
Type in all cases: cell-based
[1] = biological target: T1, PRKAA1 (Homo sapiens, UniProt Q13131); assay: Expression proteomics in THP-1 cells: PRKAA1 protein level; settings: PRKAA1, THP-1 cells
T1 construct: endogenous in cells; host or cells: THP-1
Method: (§1) THP-1 cells were seeded at a concentration of 3×10^6 cells in T175 flasks with 60 mL growth medium (RPMI1640+10% FBS). […] of a 10× compound solution prepared in growth medium (DMSO), CEREBLON_PROTAC) was added and the cells were treated for the indicated time points (6 or 24 h) at 37° C., 5% CO2. For harvesting the cells were collected into falcon tubes on ice, centrifuged and washed twice in cold PBS (Life technologies). After the last washing step the supernatant was removed and the pellets were snap-frozen in liquid N2 and stored at −80° C. and lysed in 2% SDS for 3 min at 95° C. in a thermomixer (Thermo Fisher Scientific), followed by digestion of DNA with Benzonase at 37° C. for 1.5 h. Lysate was cleared by centrifugation an protein concentration in supernatant was determined by BCA assay.
(§2) Leukemia 25, 89-100 (2011).
(§3) Samples were dried in vacuo and resuspended in 0.05% trifluoroacetic acid in water. Of the sample, 50% was injected into an Ultimate3000 nanoRLSC (Dionex, Sunnyvale, Calif.) coupled to a Q Exactive HF (Thermo Fisher Scientific). Peptides were trapped on a 5 mm×300 μm C18 column (Pepmap100, 5 μm, 300 Å, Thermo Fisher Scientific) in water with 0.05% TFA at 60° C. Separation was performed on custom 50 cm×[…] (ID) reversed-phase columns (Reprosil) at 55° C. Gradient elution was performed from 2% acetonitrile to 40% acetonitrile in 0.1% formic acid and 3.5% DMSO over 2 hours. Samples were online injected into Q-Exactive HF mass spectrometers operating with a data-dependent top 10 method. MS spectra were acquired by using 60.000 resolution and an ion target of 3×10^6. Higher energy collisional dissociation (HCD) scans were performed with 35% NCE at 30.000 resolution (at m/z 200), and the ion target settings was set to 2×10^5 so as to avoid coalescence (Werner, T. et al. Ion Coalescence of Neutron Encoded TMT 10-Plex Reporter Ions. Anal. Chem. 86, 3594-3601 (2014).
(§4) The first search was performed with 30 parts per million mass tolerance for peptide precursors and 30 mD (HCD) mass tolerance for fragment ions followed by a final search using recalibrated data with a 10 parts per million mass tolerance for peptide precursors and 20 mD (HCD) mass tolerance for fragment ions. Carbamidomethylation of cysteine residues and TMT modification of lysine residues were set as fixed modifications and methionine oxidation, and N-terminal acetylation of proteins and TMT modification of peptide N-termini were set as variable modifications. […]
(§5) Nat Biotech 29, 255-265 (2011). this measure is referred to as ion area Savitski, M. M. et al. Delayed Fragmentation and Optimized Isolation Width Settings for Improvement of Protein Identification and Accuracy of Isobaric Mass Tag Quantification on Orbitrap-Type Mass Spectrometers. […]

[2] = biological target: T2, TEC (Homo sapiens, UniProt P42680); assay: Expression proteomics in THP-1 cells: TEC protein level
T2 construct: endogenous in cells; host or cells: THP-1
T2 sequence (P42680 1-631): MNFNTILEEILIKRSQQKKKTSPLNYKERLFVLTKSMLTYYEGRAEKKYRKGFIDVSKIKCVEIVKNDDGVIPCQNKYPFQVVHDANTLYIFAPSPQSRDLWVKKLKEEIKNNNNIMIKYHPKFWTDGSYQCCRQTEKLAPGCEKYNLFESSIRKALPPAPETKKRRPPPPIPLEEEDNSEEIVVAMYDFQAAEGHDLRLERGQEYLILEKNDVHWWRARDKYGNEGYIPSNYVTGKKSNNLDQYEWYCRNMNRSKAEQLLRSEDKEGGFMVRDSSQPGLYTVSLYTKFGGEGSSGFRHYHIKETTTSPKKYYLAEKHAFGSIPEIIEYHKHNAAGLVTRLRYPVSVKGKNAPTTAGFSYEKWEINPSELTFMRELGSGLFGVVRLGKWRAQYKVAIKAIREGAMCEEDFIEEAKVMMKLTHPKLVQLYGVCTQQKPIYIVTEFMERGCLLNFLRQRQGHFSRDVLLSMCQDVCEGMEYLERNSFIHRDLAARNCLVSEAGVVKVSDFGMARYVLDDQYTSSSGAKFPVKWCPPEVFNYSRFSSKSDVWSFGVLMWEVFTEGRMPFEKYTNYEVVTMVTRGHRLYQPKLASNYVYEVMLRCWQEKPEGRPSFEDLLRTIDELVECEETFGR
Method: as §1, §2, §3, §4, §5

[3] = biological target: T3, AURKB (Homo sapiens, UniProt Q96GD4); assay: Expression proteomics in THP-1 cells: AURKB protein level
T3 construct: endogenous in cells; host or cells: THP-1
Method: as §1, §2, §3, §4, §5

[4] = biological target: T4, PTK2B (Homo sapiens, UniProt Q14289); assay: Expression proteomics in THP-1 cells: PTK2B protein level
T4 construct: endogenous in cells; host or cells: THP-1
Method: as §1, §2, §3, §4, §5

[5] = biological target: T5, PTK2 (Homo sapiens, UniProt Q05397); assay: Expression proteomics in THP-1 cells: PTK2 protein level; settings: PTK2, THP-1 cells
T5 construct: endogenous in cells; host or cells: THP-1
Method: as §1, §2, §3, §4, §5

T5 sequence (Q05397 whole entry): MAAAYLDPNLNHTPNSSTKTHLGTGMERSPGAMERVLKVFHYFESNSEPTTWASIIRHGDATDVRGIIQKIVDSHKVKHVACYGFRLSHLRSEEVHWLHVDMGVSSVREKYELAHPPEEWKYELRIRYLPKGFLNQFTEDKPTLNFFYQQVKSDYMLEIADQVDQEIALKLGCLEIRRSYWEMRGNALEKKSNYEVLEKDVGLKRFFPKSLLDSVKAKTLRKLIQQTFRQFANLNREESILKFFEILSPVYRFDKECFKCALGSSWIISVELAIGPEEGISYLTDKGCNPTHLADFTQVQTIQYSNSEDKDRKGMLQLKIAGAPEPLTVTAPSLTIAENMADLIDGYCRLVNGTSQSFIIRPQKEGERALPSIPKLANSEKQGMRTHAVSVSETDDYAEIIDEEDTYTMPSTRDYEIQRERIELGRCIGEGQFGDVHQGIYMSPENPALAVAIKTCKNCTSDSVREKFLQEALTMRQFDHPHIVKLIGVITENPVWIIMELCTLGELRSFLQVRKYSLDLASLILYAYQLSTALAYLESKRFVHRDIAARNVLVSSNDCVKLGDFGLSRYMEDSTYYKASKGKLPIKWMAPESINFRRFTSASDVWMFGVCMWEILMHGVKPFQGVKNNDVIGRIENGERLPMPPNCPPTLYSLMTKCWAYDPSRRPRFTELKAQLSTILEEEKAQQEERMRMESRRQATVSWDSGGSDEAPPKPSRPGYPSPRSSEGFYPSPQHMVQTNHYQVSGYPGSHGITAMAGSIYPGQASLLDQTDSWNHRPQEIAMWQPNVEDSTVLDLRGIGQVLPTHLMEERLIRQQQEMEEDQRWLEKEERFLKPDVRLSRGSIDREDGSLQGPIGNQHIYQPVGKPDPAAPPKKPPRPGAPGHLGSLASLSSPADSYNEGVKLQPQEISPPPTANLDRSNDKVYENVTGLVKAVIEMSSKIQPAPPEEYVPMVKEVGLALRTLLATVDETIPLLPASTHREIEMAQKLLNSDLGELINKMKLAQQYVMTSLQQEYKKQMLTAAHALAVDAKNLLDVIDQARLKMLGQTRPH
T4 sequence (Q14289 whole entry): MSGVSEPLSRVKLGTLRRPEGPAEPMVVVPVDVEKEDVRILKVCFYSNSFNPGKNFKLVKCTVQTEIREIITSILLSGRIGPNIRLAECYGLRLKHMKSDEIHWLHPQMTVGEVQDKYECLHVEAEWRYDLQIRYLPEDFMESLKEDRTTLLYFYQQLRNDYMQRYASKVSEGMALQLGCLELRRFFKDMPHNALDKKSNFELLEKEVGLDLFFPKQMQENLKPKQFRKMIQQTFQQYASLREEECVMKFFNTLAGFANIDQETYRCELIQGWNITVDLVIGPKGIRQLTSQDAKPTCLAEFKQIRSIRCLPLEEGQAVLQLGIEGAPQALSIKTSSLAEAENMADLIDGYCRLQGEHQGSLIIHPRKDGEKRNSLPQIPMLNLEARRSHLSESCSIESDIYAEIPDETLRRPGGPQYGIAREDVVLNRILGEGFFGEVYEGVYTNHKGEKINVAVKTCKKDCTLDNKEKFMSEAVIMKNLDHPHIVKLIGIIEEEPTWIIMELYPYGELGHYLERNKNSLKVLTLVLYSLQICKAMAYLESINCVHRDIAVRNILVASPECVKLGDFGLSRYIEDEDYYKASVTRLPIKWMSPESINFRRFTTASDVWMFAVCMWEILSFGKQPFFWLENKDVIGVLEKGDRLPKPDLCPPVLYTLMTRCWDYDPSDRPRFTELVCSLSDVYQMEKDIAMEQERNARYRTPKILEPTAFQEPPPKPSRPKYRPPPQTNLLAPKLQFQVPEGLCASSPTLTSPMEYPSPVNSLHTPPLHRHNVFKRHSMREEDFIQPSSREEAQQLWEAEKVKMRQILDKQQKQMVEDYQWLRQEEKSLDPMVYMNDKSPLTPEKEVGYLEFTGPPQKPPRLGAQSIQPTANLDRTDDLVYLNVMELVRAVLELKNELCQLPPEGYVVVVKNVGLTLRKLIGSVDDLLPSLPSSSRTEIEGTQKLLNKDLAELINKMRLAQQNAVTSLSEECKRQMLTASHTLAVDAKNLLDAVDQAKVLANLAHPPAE
T3 sequence (Q96GD4 whole entry): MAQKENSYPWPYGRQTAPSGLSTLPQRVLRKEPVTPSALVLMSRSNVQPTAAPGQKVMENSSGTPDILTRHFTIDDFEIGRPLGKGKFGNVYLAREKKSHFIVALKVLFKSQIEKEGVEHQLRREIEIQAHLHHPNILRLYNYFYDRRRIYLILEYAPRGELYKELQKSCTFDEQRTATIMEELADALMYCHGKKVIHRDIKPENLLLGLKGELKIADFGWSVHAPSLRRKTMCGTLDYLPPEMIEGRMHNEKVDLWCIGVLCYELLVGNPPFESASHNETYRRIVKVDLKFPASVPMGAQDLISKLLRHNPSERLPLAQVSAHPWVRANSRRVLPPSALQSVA
T1 sequence (Q13131 whole entry): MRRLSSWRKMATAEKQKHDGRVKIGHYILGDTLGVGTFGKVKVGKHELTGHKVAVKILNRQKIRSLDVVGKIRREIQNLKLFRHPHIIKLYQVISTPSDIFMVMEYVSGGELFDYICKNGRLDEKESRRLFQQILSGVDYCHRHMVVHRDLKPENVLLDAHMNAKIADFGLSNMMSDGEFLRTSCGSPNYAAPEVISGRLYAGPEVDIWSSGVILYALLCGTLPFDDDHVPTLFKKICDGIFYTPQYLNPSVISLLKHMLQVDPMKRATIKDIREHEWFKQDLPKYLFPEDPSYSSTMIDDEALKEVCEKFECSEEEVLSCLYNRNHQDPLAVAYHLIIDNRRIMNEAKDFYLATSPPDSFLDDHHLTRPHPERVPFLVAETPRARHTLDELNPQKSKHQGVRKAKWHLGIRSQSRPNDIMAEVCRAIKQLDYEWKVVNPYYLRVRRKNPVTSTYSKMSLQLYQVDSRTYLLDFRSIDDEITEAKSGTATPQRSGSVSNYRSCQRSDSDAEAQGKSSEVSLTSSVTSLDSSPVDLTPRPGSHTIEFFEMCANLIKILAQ
T1 sequence (Q9Y478 2-270 partner limits assumed): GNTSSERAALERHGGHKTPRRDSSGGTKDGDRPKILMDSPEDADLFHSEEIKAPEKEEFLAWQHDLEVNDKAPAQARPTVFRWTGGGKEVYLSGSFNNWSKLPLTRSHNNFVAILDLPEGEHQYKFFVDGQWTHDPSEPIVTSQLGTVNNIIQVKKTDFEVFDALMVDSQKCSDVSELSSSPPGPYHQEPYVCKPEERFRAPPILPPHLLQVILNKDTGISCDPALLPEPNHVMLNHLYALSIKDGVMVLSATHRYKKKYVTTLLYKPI
T1 sequence (P54619 whole entry partner): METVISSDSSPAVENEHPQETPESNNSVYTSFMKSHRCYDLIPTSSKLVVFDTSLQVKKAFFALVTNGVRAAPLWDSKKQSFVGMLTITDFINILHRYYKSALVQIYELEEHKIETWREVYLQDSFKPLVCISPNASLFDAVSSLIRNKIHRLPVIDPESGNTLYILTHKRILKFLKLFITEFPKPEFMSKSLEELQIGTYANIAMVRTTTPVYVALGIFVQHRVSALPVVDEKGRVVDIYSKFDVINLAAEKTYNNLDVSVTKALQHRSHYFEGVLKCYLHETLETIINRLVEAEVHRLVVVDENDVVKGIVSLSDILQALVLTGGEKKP

- log2 rel. fc. to vehicle control ([1]; 24 h 0.1 μM, n = 1): −0.38
- log2 rel. fc. to vehicle control ([1]; 24 h 0.1 μM, n = 2): −0.74
- log2 rel. fc. to vehicle control ([1]; 24 h 1 μM, n = 1): −1.06
- log2 rel. fc. to vehicle control ([1]; 24 h 1 μM, n = 2): −1.35
- log2 rel. fc. to vehicle control ([2]; 24 h 0.1 μM, n = 1): −1.83
- log2 rel. fc. to vehicle control ([2]; 24 h 0.1 μM, n = 2): −2.38
- log2 rel. fc. to vehicle control ([2]; 24 h 1 μM, n = 1): −1.74
- log2 rel. fc. to vehicle control ([2]; 24 h 1 μM, n = 2): −1.94
- log2 rel. fc. to vehicle control ([3]; 24 h 0.1 μM, n = 1): −1.75
- log2 rel. fc. to vehicle control ([3]; 24 h 0.1 μM, n = 2): −1.44
- log2 rel. fc. to vehicle control ([3]; 24 h 1 μM, n = 1): −0.83
- log2 rel. fc. to vehicle control ([3]; 24 h 1 μM, n = 2): −1.33
- log2 rel. fc. to vehicle control ([4]; 24 h 0.1 μM, n = 1): −2.34
- log2 rel. fc. to vehicle control ([4]; 24 h 0.1 μM, n = 2): −2.50
- log2 rel. fc. to vehicle control ([4]; 24 h 1 μM, n = 1): −2.09
- log2 rel. fc. to vehicle control ([4]; 24 h 1 μM, n = 2): −2.18
- log2 rel. fc. to vehicle control ([5]; 24 h 0.1 μM, n = 1): −2.29
- log2 rel. fc. to vehicle control ([5]; 24 h 0.1 μM, n = 2): −2.92
- log2 rel. fc. to vehicle control ([5]; 24 h 1 μM, n = 1): −2.42
- log2 rel. fc. to vehicle control ([5]; 24 h 1 μM, n = 2): −2.20
Compound: CNC(=O)c1ccccc1Nc1nc(Nc2ccc(N3CCN(CCOCCOCCOCCOCC(=O)Nc4cccc5c4CN(C4CCC(=O)NC4=O)C5=O)CC3)cc2)ncc1Cl.O=CO (centres unmarked) [CEREBLON_PROTAC, 14-(4-(4-((5-Chloro-4-((2-(methylcarbamoyl)phenyl)amino)pyrimidin-2-yl)amino)phenyl)piperazin-1-yl)-N-(2-(2,6-dioxopiperidin-3-yl)-1-oxoisoindolin-4-yl)-3,6,9,12-tetraoxatetradecan-1-amide formate]

— US20190210996A1, “NOVEL COMPOUNDS” (GLAXOSMITHKLINE INTELLECTUAL PROPERTY DEVELOPMENT LIMITED, priority 2016, published 2019)
